# From patent publication US20100119525A1 (priority 2005, published 2010)
# Experiments:
# NPC1L1 = NPC1L1 (Homo sapiens, UniProt Q9UHC9); conditions: prokaryotic screening method
# [1] = in vivo, cited from earlier work
# C57B16 mice = conditions: in vivo; cited from earlier work
# NPC1L1, sequence (Q9UHC9 22-1359): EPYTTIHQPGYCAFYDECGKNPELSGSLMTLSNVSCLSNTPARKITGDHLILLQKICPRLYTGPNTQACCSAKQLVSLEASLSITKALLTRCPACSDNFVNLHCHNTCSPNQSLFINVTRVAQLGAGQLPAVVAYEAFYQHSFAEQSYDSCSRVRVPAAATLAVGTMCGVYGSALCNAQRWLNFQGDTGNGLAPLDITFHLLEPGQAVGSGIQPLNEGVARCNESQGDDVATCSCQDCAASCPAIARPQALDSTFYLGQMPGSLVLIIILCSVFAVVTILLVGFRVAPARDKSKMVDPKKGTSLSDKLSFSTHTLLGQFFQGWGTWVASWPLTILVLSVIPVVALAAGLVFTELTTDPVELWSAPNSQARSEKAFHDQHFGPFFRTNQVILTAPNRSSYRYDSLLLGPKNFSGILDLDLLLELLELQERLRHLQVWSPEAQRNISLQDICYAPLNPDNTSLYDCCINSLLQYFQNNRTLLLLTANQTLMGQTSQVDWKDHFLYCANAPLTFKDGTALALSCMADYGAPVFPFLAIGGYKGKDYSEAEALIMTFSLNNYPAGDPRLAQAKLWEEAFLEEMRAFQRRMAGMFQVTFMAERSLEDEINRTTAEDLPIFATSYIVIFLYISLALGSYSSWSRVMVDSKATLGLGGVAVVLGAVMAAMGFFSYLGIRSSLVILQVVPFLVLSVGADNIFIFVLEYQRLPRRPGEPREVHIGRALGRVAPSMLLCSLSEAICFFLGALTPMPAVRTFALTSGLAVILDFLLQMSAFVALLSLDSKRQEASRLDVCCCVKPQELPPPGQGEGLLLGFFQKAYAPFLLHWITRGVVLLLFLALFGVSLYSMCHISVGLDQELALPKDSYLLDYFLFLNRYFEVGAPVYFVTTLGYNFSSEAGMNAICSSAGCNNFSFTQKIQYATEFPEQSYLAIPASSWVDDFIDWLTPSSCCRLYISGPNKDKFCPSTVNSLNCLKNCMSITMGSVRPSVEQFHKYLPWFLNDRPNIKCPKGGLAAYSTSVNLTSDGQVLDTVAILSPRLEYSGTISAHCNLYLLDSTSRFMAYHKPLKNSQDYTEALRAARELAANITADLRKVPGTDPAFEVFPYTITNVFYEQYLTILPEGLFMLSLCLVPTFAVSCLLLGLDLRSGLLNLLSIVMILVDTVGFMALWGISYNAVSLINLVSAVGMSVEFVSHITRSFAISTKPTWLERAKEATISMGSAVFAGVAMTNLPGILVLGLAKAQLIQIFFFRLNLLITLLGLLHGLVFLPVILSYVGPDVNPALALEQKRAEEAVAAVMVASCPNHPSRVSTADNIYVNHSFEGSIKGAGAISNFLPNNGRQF
compound,measurement,setting,value
CCCC(=O)C1(c2ccccc2)CCNCC1.Cl,NPC1L1 inhibitor identification,NPC1L1,inhibitor was identified
"O=C1[C@H](CC[C@H](O)c2ccc(F)cc2)[C@@H](c2ccc(O)cc2)N1c1ccc(F)cc1 [Zetia®, 1-(4-fluorophenyl)-(3R)-[3-(4-fluorophenyl)-3(S)-hydroxypropyl]-4(S)-(4-hydroxyphenyl)-2-azetidinone]",extensively metabolised to the pharmacologically active ezetimibe-glucuronide,[1]; po,> 80%
same,accumulation,[1],~2 fold
same,time at which total Zetia concentrations reach a maximum,[1],1 to 2 h
COc1ccc2[nH]cc(CCNC(C)=O)c2c1 [melatonin],life of the C57B16 mouse,C57B16 mice,871 ± 30.5 days
ezetimibe-glucuronide,estimated terminal half-life,[1]; po,approximately 22 hours
